The CheMixHub viscosity set

Test: xn = mol fraction of the nth substance listed

CCCOCCO + OCCOCCOCCOCCO
101 kPa
Conditions	viscosity [mPa·s]
293.15 K, x1 = 0.0542	48.17
293.15 K, x1 = 0.1014	43.86
293.15 K, x1 = 0.201	35.31
293.15 K, x1 = 0.3003	27.79
293.15 K, x1 = 0.3986	21.51
293.15 K, x1 = 0.4476	18.81
293.15 K, x1 = 0.5026	16.04
293.15 K, x1 = 0.5513	13.99
293.15 K, x1 = 0.6093	11.77
293.15 K, x1 = 0.6955	9.005
293.15 K, x1 = 0.8069	6.17
293.15 K, x1 = 0.8986	4.294
293.15 K, x1 = 0.9299	3.73
298.15 K, x1 = 0.0471	40.86
298.15 K, x1 = 0.1215	35.33
298.15 K, x1 = 0.2008	29.71
298.15 K, x1 = 0.2987	23.76
298.15 K, x1 = 0.4022	18.52
298.15 K, x1 = 0.4601	16.06
298.15 K, x1 = 0.5018	14.48
298.15 K, x1 = 0.5507	12.73
298.15 K, x1 = 0.5961	11.26
298.15 K, x1 = 0.6975	8.355
298.15 K, x1 = 0.7954	5.941
298.15 K, x1 = 0.9023	3.732
298.15 K, x1 = 0.947	2.996
303.15 K, x1 = 0.0564	32.24
303.15 K, x1 = 0.1139	28.91
303.15 K, x1 = 0.2071	23.96
303.15 K, x1 = 0.304	19.47
303.15 K, x1 = 0.3911	15.98
303.15 K, x1 = 0.4512	13.87
303.15 K, x1 = 0.5003	12.29
303.15 K, x1 = 0.5411	11.08
303.15 K, x1 = 0.5977	9.543
303.15 K, x1 = 0.7007	7.098
303.15 K, x1 = 0.794	5.232
303.15 K, x1 = 0.8948	3.54
303.15 K, x1 = 0.9402	2.883

N#Cc1ccccc1 + OCc1ccccc1
303.15 K, 101 kPa
Conditions	viscosity [mPa·s]
x2 = 0.146	1.123
x2 = 0.276	1.263
x2 = 0.3251	1.366
x2 = 0.4147	1.535
x2 = 0.5549	1.902
x2 = 0.6387	2.184
x2 = 0.7443	2.635
x2 = 0.8022	2.942
x2 = 0.9039	3.595

NNc1ccccc1 + Oc1ccccc1
323.1 K, 101 kPa
Conditions	viscosity [mPa·s]
x1 = 0.181	5.25
x1 = 0.369	7.49
x1 = 0.466	8.02
x1 = 0.502	8.2
x1 = 0.595	8.05
x1 = 0.781	6.56

Nc1cccc2ccccc12 + Oc1ccccc1
viscosity [mPa·s], 101.33 kPa
Conditions	x1 = 0.4159	x1 = 0.4605	x1 = 0.7133	x1 = 0.8902
303.15 K	24.9	26.9	32.4	–
323.15 K	8.52	9	10.9	11.3

NNc1ccccc1 + Oc1ccccc1Cl
323.1 K, 101 kPa
Conditions	viscosity [mPa·s]
x1 = 0.1706	3.51
x1 = 0.401	7.16
x1 = 0.508	8.27
x1 = 0.536	8.18
x1 = 0.781	6.955

CCC(=O)OC + c1ccccc1
viscosity [mPa·s]
Conditions	298.15 K	308.15 K	313.15 K	318.15 K
101 kPa, x2 = 0.1014	0.435	–	0.373	–
101 kPa, x2 = 0.1972	0.444	–	0.38	–
101 kPa, x2 = 0.3002	0.453	–	0.387	–
101 kPa, x2 = 0.3996	0.466	–	0.397	–
101 kPa, x2 = 0.5012	0.48	–	0.407	–
101 kPa, x2 = 0.6036	0.496	–	0.419	–
101 kPa, x2 = 0.6961	0.513	–	0.43	–
101 kPa, x2 = 0.8009	0.536	–	0.447	–
101 kPa, x2 = 0.898	0.561	–	0.465	–
101.3 kPa, x1 = 0.0415	–	0.53	–	0.466
101.3 kPa, x1 = 0.1037	–	0.52	–	0.461
101.3 kPa, x1 = 0.2041	–	0.505	–	0.453
101.3 kPa, x1 = 0.3026	–	0.492	–	0.446
101.3 kPa, x1 = 0.4053	–	0.48	–	0.44
101.3 kPa, x1 = 0.4569	–	0.474	–	0.437
101.3 kPa, x1 = 0.6013	–	0.462	–	0.43
101.3 kPa, x1 = 0.7026	–	0.453	–	0.425
101.3 kPa, x1 = 0.8018	–	0.447	–	0.43
101.3 kPa, x1 = 0.9039	–	0.441	–	0.418
101.3 kPa, x1 = 0.9674	–	0.438	–	0.417

N#Cc1ccccc1 + c1ccccc1
Conditions	viscosity [mPa·s]
298.15 K, 101 kPa, x1 = 0.2	0.688
298.15 K, 101 kPa, x2 = 0.1681	1.098
298.15 K, 101 kPa, x2 = 0.3126	0.9985
298.15 K, 101 kPa, x2 = 0.4381	0.9214
298.15 K, 101 kPa, x2 = 0.5481	0.8456
298.15 K, 101 kPa, x2 = 0.6453	0.7942
298.15 K, 101 kPa, x2 = 0.7318	0.7145
298.15 K, 101 kPa, x2 = 0.8093	0.6845
298.15 K, 101 kPa, x2 = 0.8792	0.6157
298.15 K, 101 kPa, x2 = 0.9423	0.5987
303.15 K, 101 kPa, x2 = 0.1133	1.013
303.15 K, 101 kPa, x2 = 0.1681	0.9758
303.15 K, 101 kPa, x2 = 0.2233	0.932
303.15 K, 101 kPa, x2 = 0.3126	0.9251
303.15 K, 101 kPa, x2 = 0.3302	0.866
303.15 K, 101 kPa, x2 = 0.434	0.812
303.15 K, 101 kPa, x2 = 0.4381	0.8542
303.15 K, 101 kPa, x2 = 0.5349	0.766
303.15 K, 101 kPa, x2 = 0.5481	0.8025
303.15 K, 101 kPa, x2 = 0.633	0.7225
303.15 K, 101 kPa, x2 = 0.6453	0.7256
303.15 K, 101 kPa, x2 = 0.7285	0.68
303.15 K, 101 kPa, x2 = 0.7318	0.6953
303.15 K, 101 kPa, x2 = 0.8093	0.6245
303.15 K, 101 kPa, x2 = 0.8214	0.6395
303.15 K, 101 kPa, x2 = 0.8792	0.5946
303.15 K, 101 kPa, x2 = 0.9119	0.5996
303.15 K, 101 kPa, x2 = 0.9423	0.5742
303.15 K, 101.32 kPa, x2 = 0.1527	1.001
303.15 K, 101.32 kPa, x2 = 0.3165	0.902
303.15 K, 101.32 kPa, x2 = 0.4174	0.831
303.15 K, 101.32 kPa, x2 = 0.5485	0.765
303.15 K, 101.32 kPa, x2 = 0.6569	0.715
303.15 K, 101.32 kPa, x2 = 0.7859	0.659
303.15 K, 101.32 kPa, x2 = 0.9145	0.607
308.15 K, 101 kPa, x1 = 0.2	0.605
308.15 K, 101 kPa, x2 = 0.1681	0.9852
308.15 K, 101 kPa, x2 = 0.3126	0.9457
308.15 K, 101 kPa, x2 = 0.4381	0.8352
308.15 K, 101 kPa, x2 = 0.5481	0.7648
308.15 K, 101 kPa, x2 = 0.6453	0.7054
308.15 K, 101 kPa, x2 = 0.7318	0.6582
308.15 K, 101 kPa, x2 = 0.8093	0.6214
308.15 K, 101 kPa, x2 = 0.8792	0.5743
308.15 K, 101 kPa, x2 = 0.9423	0.5621
313.15 K, 101 kPa, x2 = 0.1681	0.9756
313.15 K, 101 kPa, x2 = 0.3126	0.9143
313.15 K, 101 kPa, x2 = 0.4381	0.8215
313.15 K, 101 kPa, x2 = 0.5481	0.7236
313.15 K, 101 kPa, x2 = 0.6453	0.6974
313.15 K, 101 kPa, x2 = 0.7318	0.6318
313.15 K, 101 kPa, x2 = 0.8093	0.5845
313.15 K, 101 kPa, x2 = 0.8792	0.5413
313.15 K, 101 kPa, x2 = 0.9423	0.5128
318.15 K, 101 kPa, x1 = 0.2	0.532
323.15 K, 101 kPa, x1 = 0.2	0.498
